Data as given in patent EP0115821A1, “Fluoran compounds” (HODOGAYA CHEMICAL CO., LTD., priority 1983, dated 1984).

Assay: Solubility in organic solvents
Format: physicochemical
Settings: at 50°C; for solubility (% by weight) in organic solvents: Hyzole-296: Hyzole-296 (diallylethane compound); for solubility (% by weight) in organic solvents: KMC-113: KMC-113 (alkyl naphthalene compound)
Text: The solubility of the fluoran compounds (B), (C) and (D) of the present invention in organic solvents was compared with that of the above-mentioned conventional fluoran compounds(A-1), (A-2) and (A-3), and the results are shown in Table 1.
Note: KMC-113 is an alkyl naphthalene compound manufactured by Kureha Chemical Industry Co. Ltd., and Hyzole-296 is a diallylethane compound manufactured by Nippon Petrochemical Co. Ltd. Both are organic solvents commonly used for pressure sensitive record sheets.

solubility (% by weight) in organic solvents: Hyzole-296	solubility (% by weight) in organic solvents: KMC-113	SMILES
3.10% by weight	1.90% by weight	CCN(CC)c1ccc2c(c1)Oc1ccc(NCc3ccc(Cl)cc3)cc1C21OC(=O)c2ccccc21 (stereo not drawn) [(A-3), 2-(4-chlorobenzylamino)-6-diethylamino fluoran]
7.20% by weight	3.80% by weight	CCCCN(CCCC)c1ccc2c(c1)Oc1ccc(NCc3ccc(Cl)cc3)cc1C21OC(=O)c2ccccc21 (stereo not drawn) [Compound (D), 2-(4-chlorobenzylamino)-6-di-n-butylamino-fluoran]
1.80% by weight	1.20% by weight	CCN(CC)c1ccc2c(c1)Oc1ccc(NCc3ccccc3Cl)cc1C21OC(=O)c2ccccc21 (stereo not drawn) [Compound (A-2), 2-(2-chlorobenzylamino)-6-diethylamino fluoran]
1.40% by weight	0.44% by weight	CCN(CC)c1ccc2c(c1)Oc1ccc(NCc3ccccc3)cc1C21OC(=O)c2ccccc21 (stereo not drawn) [Compound (A-1), 2-benzylamino-6-diethylamino fluoran]
4.80% by weight	3.30% by weight	CCCCN(CCCC)c1ccc2c(c1)Oc1ccc(NCc3ccccc3Cl)cc1C21OC(=O)c2ccccc21 (stereo not drawn) [Compound (B), 2-(2-chlorobenzylamino)-6-di-n-butylamino-fluoran]
6.30% by weight	4.20% by weight	CCCCN(CCCC)c1ccc2c(c1)Oc1ccc(NCc3cccc(Cl)c3)cc1C21OC(=O)c2ccccc21 (stereo not drawn) [Compound (C), 2-(3-chlorobenzylamino)-6-di-n-butylamino-fluoran]
